Patent US8293791B2, “Method of neuroprotection by pharmacological inhibition of AMP-activated protein kinase” (priority 2004, dated 2012)
“Also recorded” adds a separate entry of the source. Read-outs that look alike come from different tables or passages of the source.

Columns and labels:
[1] = tested on: AMPKα phosphorylation (pAMPK); assay: Western blot analysis of pAMPK levels in brain hemispheres after MCAO or sham surgery; assay type: in vivo, mouse
Experimental: Cerebral ischemia was induced by 120 minutes of reversible right middle cerebral artery occlusion (MCAO) under halothane anesthesia followed by reperfusion for various times for male C57B6 mice (Charles River) or male rats, as described by McCullough, et al., Stroke, 32, 796-802 (2001) and McCullough, et al., J. Neuroscience, 24, pp. 257-268 (2004), respectively. Intra-ischemic and 22 hour post-reperfusion neurological deficits (NDS) were scored as follows: 0, no deficit; 1, forelimb weakness and torso turning to the ipsilateral side when held by tail; 2, circling to affected side; 3, unable to bear weight on affected side; and 4, no spontaneous locomotor activity or barrel rolling. Any animal without deficit was excluded from the study. At end-ischemia, the animal was briefly re-anaesthetized and reperfusion was initiated by filament withdrawal. Sham animals were subjected to the equivalent surgical preparation, but the suture was not advanced into the internal carotid. For the pharmacological neuroprotection studies, mice survived 22 hours after reperfusion, at which time behavioral scoring was done. The brain was then harvested for pathological examination with TTC histology (see Histopathology section). In separate animal cohorts, physiological measurements, femoral arterial blood pressure and cortical perfusion (laser Doppler flowmetry) were evaluated throughout MCAO and early reperfusion as described in the 2001 McCullough paper referenced above. Additional animals were exposed to ischemia or sham surgery after pharmacological or vehicle treatment and were sacrificed at 4 or 24 hours for Western blot analysis. Male nNOS and PARP-1 deficient mice (see, Huang, et al., Science, 265, 1883-1885 (1994); Eliasson, et al, Nat. Med, 3, 1089-1095 (1997)) were subjected to 2-hour right MCAO or sham surgery and compared to additional WT cohorts (C57-BL6 for nNOS−/− and SVEV for PARP−/−). Mouse and rat stroke and sham brain samples were obtained by rapid removal of the brain from the skulk resection of the cerebellum, followed by immediate dissection into the right (R) and left (L) hemispheres. Samples were flash frozen in liquid nitrogen. Samples from rats were further sub-dissected into core and penumbral regions for both hemispheres. Samples were stored at −80° C. until use. […] SDS detergent was added to a final concentration of 0.2%, and lysates were boiled for 5 min. After the supernatant was harvested, protein concentration was determined using a BCA kit (Bio Rad). 40 μg of protein was loaded per lane on a 4-15% gradient SDS-polyacrylamide gel, and transferred to a polyvinylidene difluoride membrane. Blots were successively probed, stripped and reprobed for antigen detection. Phosphorylation of AMPKα was determined using an anti-phospho-AMPKα (α1 and α2 Thr) antibody (1:1000, Cell Signaling). ACC (1:500), p-ACC (1:1000), pAkt (1:500), and Akt (1:500) antibodies were obtained from Upstate, Lake Placid, N.Y. Anti-AMPKα antibody (anti-α1 and α2, 1:1000; Cell Signaling), hsp-70 (1:1000; Santa Cruz), and β-actin (1:5000; Sigma) were used as loading controls. All blots were incubated overnight in primary antibody at 4° C. in TBS buffer containing 5% BSA and 0.1% Triton-X-100. The secondary antibody (goat anti-rabbit IgG, Chemicon) was diluted to 1:5,000, and ECL (pico) detection kit was used for signal detection.

male C57B6 mice [2] = conditions: mouse, in vivo
male C57B6 mice [3] = assay: Infarction volume (TTC staining) after 2-hr reversible MCAO with 22 hr reperfusion; assay type: in vivo, mouse
Experimental: Cerebral ischemia was induced by 120 minutes of reversible right middle cerebral artery occlusion (MCAO) under halothane anesthesia followed by reperfusion for various times for male C57B6 mice (Charles River) or male rats, as described by McCullough, et al., Stroke, 32, 796-802 (2001) and McCullough, et al., J. Neuroscience, 24, pp. 257-268 (2004), respectively. Intra-ischemic and 22 hour post-reperfusion neurological deficits (NDS) were scored as follows: 0, no deficit; 1, forelimb weakness and torso turning to the ipsilateral side when held by tail; 2, circling to affected side; 3, unable to bear weight on affected side; and 4, no spontaneous locomotor activity or barrel rolling. Any animal without deficit was excluded from the study. At end-ischemia, the animal was briefly re-anaesthetized and reperfusion was initiated by filament withdrawal. Sham animals were subjected to the equivalent surgical preparation, but the suture was not advanced into the internal carotid. For the pharmacological neuroprotection studies, mice survived 22 hours after reperfusion, at which time behavioral scoring was done. The brain was then harvested for pathological examination with TTC histology (see Histopathology section). In separate animal cohorts, physiological measurements, femoral arterial blood pressure and cortical perfusion (laser Doppler flowmetry) were evaluated throughout MCAO and early reperfusion as described in the 2001 McCullough paper referenced above. Additional animals were exposed to ischemia or sham surgery after pharmacological or vehicle treatment and were sacrificed at 4 or 24 hours for Western blot analysis. Male nNOS and PARP-1 deficient mice (see, Huang, et al., Science, 265, 1883-1885 (1994); Eliasson, et al, Nat. Med, 3, 1089-1095 (1997)) were subjected to 2-hour right MCAO or sham surgery and compared to additional WT cohorts (C57-BL6 for nNOS−/− and SVEV for PARP−/−). Infarction volume was analyzed by 2,3,5-triphenyltetrazolium staining in five 2-mm slices. Infarction volume was determined by video microscopy and image analysis (Inquiry 3, Loats Associates), as previously described by McCullough, et al., J. Neuroscience 23, pp. 8701-8705 (2003). All data are expressed as mean±SEM. Physiological variables and histology were analyzed by 1-way ANOVA with a post-hoc Newman-Keuls to correct for multiple comparisons. Post-ischemic neurological scores were analyzed by the Mann-Whitney U test. Values were considered statistically significant at *, p<0.05; **, p<0.01; ***, p<0.001

male C57B6 mice [4] = assay: Physiological measurements, arterial blood pressure and laser Doppler flow during MCAO and early reperfusion; conditions: for MAP: averaged over the 2 hours of ischemia (all); for MAP / LDF (% BL) / HCO3 / Hg / PCO2 / PO2 / Ph: n=4/group; for LDF (% BL) / HCO3 / Hg / PCO2 / PO2 / Ph: intra-ischemic; for LDF (% BL): averaged over the 2 hours of ischemia
male C57B6 mice [5] = assay: Neurological deficit score (NDS) after MCAO; assay type: in vivo, mouse
Experimental: Cerebral ischemia was induced by 120 minutes of reversible right middle cerebral artery occlusion (MCAO) under halothane anesthesia followed by reperfusion for various times for male C57B6 mice (Charles River) or male rats, as described by McCullough, et al., Stroke, 32, 796-802 (2001) and McCullough, et al., J. Neuroscience, 24, pp. 257-268 (2004), respectively. Intra-ischemic and 22 hour post-reperfusion neurological deficits (NDS) were scored as follows: 0, no deficit; 1, forelimb weakness and torso turning to the ipsilateral side when held by tail; 2, circling to affected side; 3, unable to bear weight on affected side; and 4, no spontaneous locomotor activity or barrel rolling. Any animal without deficit was excluded from the study. At end-ischemia, the animal was briefly re-anaesthetized and reperfusion was initiated by filament withdrawal. […] In separate animal cohorts, physiological measurements, femoral arterial blood pressure and cortical perfusion (laser Doppler flowmetry) were evaluated throughout MCAO and early reperfusion as described in the 2001 McCullough paper referenced above. […]
All data are expressed as mean±SEM. Physiological variables and histology were analyzed by 1-way ANOVA with a post-hoc Newman-Keuls to correct for multiple comparisons. Post-ischemic neurological scores were analyzed by the Mann-Whitney U test. […]

NC(=O)c1ncn([C@@H]2O[C@H](CO)[C@@H](O)[C@H]2O)c1N [AICAR, 5-aminoimidazole-4-carboxamide ribonucleoside]
pAMPK by 24 hr ([1]; AICAR treated animals): returned to baseline
pAMPK 4 hr following stroke (2 hours of reperfusion) ([1]; AICAR treated vs vehicle treated animals): elevations
CBF at 30 minutes after reperfusion (male C57B6 mice [2]): 82.7 % of baseline
HCO3 (male C57B6 mice [2]): 22.9 ± 2.3
Hg (male C57B6 mice [2]): 13.4 ± 0.9
LDF (% BL) (male C57B6 mice [2]): 11.1 ± 1.2 % BL
MAP (male C57B6 mice [2]): 77.7 ± 7.3 (all)
PCO2 (male C57B6 mice [2]): 39.7 ± 4.9
PO2 (male C57B6 mice [2]): 128 ± 15.2
Ph (male C57B6 mice [2]): 7.33 ± 0.11
intraischemic CBF, vs controls (male C57B6 mice [2]): no differences
mean arterial pressure (MAP) at 15 minutes after injection (male C57B6 mice [2]): 69 mmHg
total and cortical (CTX) stroke volumes (male C57B6 mice [3]; AICAR 500 mg/kg i.p. at stroke onset, vs vehicle): significant exacerbation

C=C1C(=O)OC(CCCCCCCC)C1C(=O)O (stereo not drawn) [C75]
LDF or physiological variables, vs vehicle (male C57B6 mice [4]; C75 20 mg/kg i.p., n=4): no differences
MAP (male C57B6 mice [4]): 79.1 ± 6.5
LDF (% BL) (male C57B6 mice [4]): 10.6 ± 0.88 % BL
HCO3 (male C57B6 mice [4]): 22.8 ± 1.2
Hg (male C57B6 mice [4]): 12.9 ± 0.5
PCO2 (male C57B6 mice [4]): 47 ± 7.1
PO2 (male C57B6 mice [4]): 135 ± 14.2
Ph (male C57B6 mice [4]): 7.34 ± 0.08
increase in pAMPK levels at 4 hr (2 hr of reperfusion) ([1]; C75 treated mice vs vehicle, 2-hour MCAO): blunted
pAMPK levels 24 hr following stroke ([1]; C75 treated vs vehicle, both sham and stroke mice): reduced; also recorded: Reductions
total and regional infarction volume (male C57B6 mice [3]; C75 20 mg/kg i.p. immediately prior to onset of ischemia, vs vehicle (RPMI), p<0.001): significant reduction
behavioral scores (score 0-4) (male C57B6 mice [5]; C75 20 mg/kg i.p. immediately prior to onset of ischemia, vehicle 3.2±0.05): 2.0±0.03

c1cc(-c2cnn3cc(-c4ccc(OCCN5CCCCC5)cc4)cnc23)ccn1 [Compound C]
relative cerebral blood flow (CBF) by laser Doppler, intraischemic and during the 30 minutes after reperfusion, vs vehicle (male C57B6 mice [4]; Compound C 20 mg/kg i.p.): no difference
relative cerebral blood flow (CBF) by laser Doppler, intraischemic period (male C57B6 mice [4]; Compound C 20 mg/kg i.p., vehicle 9.8±0.54, p=n.s.): 10.6±0.9 % of baseline
MAP (male C57B6 mice [4]): 82.2 ± 5.9
LDF (% BL) (male C57B6 mice [4]): 10.6 ± 0.9 % BL
HCO3 (male C57B6 mice [4]): 23.1 ± 0.08
Hg (male C57B6 mice [4]): 12.7 ± 1.3
PCO2 (male C57B6 mice [4]): 42.1 ± 3.1
PO2 (male C57B6 mice [4]): 144.6 ± 14.3
Ph (male C57B6 mice [4]): 7.36 ± 0.07
pAMPK levels 4 hr after infarction (2 hours of reperfusion) ([1]; Compound C treated mice vs vehicle, 2 hours MCAO): reduced
cortical (CTX) infarct volume (male C57B6 mice [3]; Compound C 20 mg/kg i.p. at stroke onset, 2-hr MCAO, 22 hr reperfusion, vehicle 63±3.4): 19.4±3.3 % non-ischemic hemisphere
striatal (CP) infarct volume (male C57B6 mice [3]; Compound C 20 mg/kg i.p. at stroke onset, 2-hr MCAO, 22 hr reperfusion, vehicle 64±5.7): 21±3.9 % non-ischemic hemisphere
total infarct volume (male C57B6 mice [3]; Compound C 20 mg/kg i.p. at stroke onset, 2-hr MCAO, 22 hr reperfusion, vs vehicle): significantly reduced
severity of behavioral deficits at 24 hours (score 0-4) (male C57B6 mice [5]; Compound C 20 mg/kg i.p. at stroke onset, vehicle 3.3±0.3): 1.9±0.2
